PubChem BioAssay (NCI)
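48-hour exposure; five concentrations; linearly interpolated endpoints. TGI: total growth inhibition.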

Columns and labels:
Experiment in all cases: NCI-60 cell line screen, 48 h
ACHN renal = tested on: ACHN renal
CAKI-1 renal = tested on: CAKI-1 renal
DU-145 prostate = tested on: DU-145 prostate
EKVX NSCLC = tested on: EKVX NSCLC
HCT-116 colon = tested on: HCT-116 colon
HCT-15 colon = tested on: HCT-15 colon
IGROV1 ovarian = tested on: IGROV1 ovarian
LOX IMVI melanoma = tested on: LOX IMVI melanoma
MOLT-4 leukemia = tested on: MOLT-4 leukemia
NCI-H226 lung = tested on: NCI-H226 lung
NCI-H522 lung = tested on: NCI-H522 lung
NCI/ADR-RES ovarian = tested on: NCI/ADR-RES ovarian
OVCAR-4 ovarian = tested on: OVCAR-4 ovarian
OVCAR-5 ovarian = tested on: OVCAR-5 ovarian
SF-295 CNS = tested on: SF-295 CNS
SK-MEL-28 melanoma = tested on: SK-MEL-28 melanoma
SN12C renal = tested on: SN12C renal
SNB-75 CNS = tested on: SNB-75 CNS
SR leukemia = tested on: SR leukemia
UACC-62 melanoma = tested on: UACC-62 melanoma

Structure (SMILES) | TGI (ACHN renal) [µM] | TGI (CAKI-1 renal) [µM] | TGI (DU-145 prostate) [µM] | TGI (EKVX NSCLC) [µM] | TGI (HCT-116 colon) [µM] | TGI (HCT-15 colon) [µM] | TGI (IGROV1 ovarian) [µM] | TGI (LOX IMVI melanoma) [µM] | TGI (MOLT-4 leukemia) [µM] | TGI (NCI-H226 lung) [µM] | TGI (NCI-H522 lung) [µM] | TGI (NCI/ADR-RES ovarian) [µM] | TGI (OVCAR-4 ovarian) [µM] | TGI (OVCAR-5 ovarian) [µM] | TGI (SF-295 CNS) [µM] | TGI (SK-MEL-28 melanoma) [µM] | TGI (SN12C renal) [µM] | TGI (SNB-75 CNS) [µM] | TGI (SR leukemia) [µM] | TGI (UACC-62 melanoma) [µM]
Cc1nc2c(o1)C(=O)c1ccccc1C2=Nc1ccc(N2CCOCC2)cc1 | 18.9 | 42.7 | 7.81 | 17.4 | 13.6 | 15.8 | 30.4 | 8.62 | 31.5 | 42.1 | 7 | > 29.6 | 12.4 | 33.6 | 5.98 | 7.69 | 10.2 | 5.03 | 13.3 | 3.73
O=C1C(=Cc2cccc(O)c2)N=C(c2ccccc2)N1n1c(-c2ccccc2)nc2ccccc2c1=O | 58 | 85.8 | 74.5 | > 100 | 43.2 | > 100 | 61.1 | 52.5 | 44.2 | 18.9 | 56 | > 100 | > 100 | 78.3 | 65.6 | > 100 | > 100 | – | 60.5 | 50.9
CC(=O)OCCOc1cc2c([nH]c3ccccc32)c(C)c2cccc1-2 | 3.35 | 6.14 | 15.8 | 5.17 | 13.1 | 10.3 | 4.84 | 6.57 | > 100 | 25 | 4.29 | > 100 | 4 | 9.11 | 15.2 | 7.57 | 10.9 | 3.51 | > 33.3 | 6.05
O=c1c2cc([N+](=O)[O-])ccc2n2n1CCCC2 | > 100 | > 100 | > 100 | > 100 | > 100 | > 100 | > 100 | > 100 | > 100 | > 100 | > 100 | > 100 | > 100 | > 100 | > 100 | > 100 | > 100 | > 100 | > 100 | > 100
CN(C)/C=N/NC(=O)/C(C#N)=C/N(C)C | > 100 | > 100 | > 100 | > 100 | > 100 | > 100 | > 100 | > 100 | > 100 | > 100 | > 100 | > 100 | > 100 | > 100 | > 100 | > 100 | > 100 | > 100 | > 100 | > 100
COc1cc(N(Cc2ccc3nc(OC)c(OC)nc3c2)Cc2ccc3nc(OC)c(OC)nc3c2)cc(OC)c1OC | > 50 | > 50 | > 50 | > 50 | > 50 | > 50 | – | > 50 | > 50 | > 50 | > 50 | > 50 | > 50 | > 50 | > 50 | > 50 | > 50 | 15.6 | > 50 | > 50
C1=NCCNCCNCCN=Cc2ccccc2OCc2cccc(n2)COc2ccccc21 | 83.4 | > 100 | > 100 | > 100 | > 100 | > 100 | > 100 | – | > 100 | > 100 | > 100 | 60.4 | > 100 | > 100 | 94 | > 100 | > 100 | > 100 | 88.9 | > 100
O=c1[nH]cnc2c1ncn2[C@@H]1C[C@H]1CO | > 100 | > 100 | > 100 | > 100 | > 100 | > 100 | > 100 | > 100 | > 100 | > 100 | > 100 | > 100 | > 100 | > 100 | – | > 100 | > 100 | > 100 | > 100 | > 100
CN(C)Cc1cc(C=O)cc(CN(C)C)c1O | > 100 | – | > 100 | > 100 | > 100 | > 100 | > 100 | > 100 | > 100 | > 100 | > 100 | > 100 | > 100 | – | > 100 | > 100 | > 100 | > 100 | > 100 | –
COc1ccc(-n2c(N)c(C#N)c(C#N)c2-c2ccccc2)cc1 | > 100 | > 100 | > 100 | > 100 | > 100 | > 100 | > 100 | > 100 | > 100 | > 100 | > 100 | > 100 | 93.2 | > 100 | > 100 | – | > 100 | 68.6 | > 100 | > 100
COc1cccc(Cc2cc(=O)c3ccc(C)nc3[nH]2)c1 | – | > 100 | > 100 | > 100 | > 100 | > 100 | > 100 | > 100 | > 100 | > 100 | 65 | > 100 | – | > 100 | > 100 | > 100 | > 100 | > 100 | > 100 | > 100
O=c1[nH]c(-n2[nH]c3c(c2=O)CCCC3)nc(O)c1-c1ccccc1 | > 100 | > 100 | > 100 | > 100 | > 100 | > 100 | > 100 | – | > 100 | > 100 | > 100 | > 100 | > 100 | > 100 | > 100 | > 100 | > 100 | – | > 100 | > 100
Nc1nc(Nc2ccccc2)sc1C(=O)c1cccs1 | > 69.8 | 62.3 | 30.8 | 31.8 | 18.2 | 27.2 | 36.3 | 27.3 | 43.9 | 39.7 | 25.9 | 82 | 40.6 | 32.1 | 66.6 | > 62.4 | 38.3 | – | 11.2 | 31
COC(=O)/C=C(\S/C(=N\n1cc(C(=O)OC)c(C(=O)OC)c1-c1ccc(C)cc1)c1ccc(C)cc1)C(=O)OC | 5.78 | – | 31.4 | 32.8 | 4.2 | 7.34 | 44.5 | 17 | > 100 | 3.5 | 3.7 | 17.2 | 3.37 | 14.5 | > 100 | 12.5 | 11.8 | 31.4 | 67.3 | 25.9
O=C(c1cc2c(c3ccccc13)NCCN=C2C(F)(F)F)C(F)(F)F | 68.3 | > 100 | > 100 | > 100 | > 100 | > 100 | > 100 | 38.4 | 38 | 47.1 | 72.7 | > 100 | > 100 | > 100 | 50.1 | 47.8 | – | > 100 | 21.3 | –
C[Si](C)(OCCS(=O)(=O)O)OC(=C1S(=O)(=O)OCCOS1(=O)=O)c1cccc2ccccc12 | > 100 | > 100 | > 100 | > 100 | > 100 | > 100 | > 100 | > 100 | > 100 | > 100 | – | > 100 | > 100 | > 100 | > 100 | > 100 | > 100 | > 100 | > 100 | –
CC(=N\N=C\c1ccccn1)/C(C)=N/N=C(C)/C(C)=N/N=C/c1ccccn1 | > 100 | > 100 | > 100 | > 100 | > 100 | > 100 | > 100 | > 100 | – | > 100 | > 100 | > 100 | > 100 | > 100 | > 100 | > 100 | > 100 | > 100 | > 100 | –
O=S(=O)(c1ccccc1)C1(CCC2OCCO2)C=CC2(CC1)OCCO2 (centres undefined) | > 100 | – | > 100 | > 100 | > 100 | > 100 | > 100 | – | > 100 | > 100 | – | > 100 | > 100 | > 100 | > 100 | > 100 | > 100 | > 100 | > 100 | > 100
CN(CC(=O)O)c1ncc2c(n1)-c1ccccc1OC2 | > 100 | > 100 | > 100 | > 100 | > 100 | > 100 | > 100 | > 100 | > 100 | – | > 100 | > 100 | > 100 | > 100 | > 100 | > 100 | > 100 | > 100 | > 100 | > 100
Cc1cc(-c2nc3ccc(F)cc3s2)ccc1N | > 100 | > 100 | > 100 | > 100 | > 100 | > 100 | > 100 | > 100 | > 100 | > 100 | > 100 | > 100 | – | > 100 | > 100 | > 100 | > 100 | > 100 | > 100 | > 100
NS(=O)(=O)c1ccc(Nc2c3ccccc3nc3c(C(=O)NCCO)cccc23)cc1 | 0.917 | 0.546 | 0.586 | 0.772 | 0.412 | 0.333 | 0.45 | 0.267 | 0.0604 | 0.296 | 0.272 | > 1 | 0.454 | 0.358 | 0.605 | 0.338 | 0.557 | – | 0.0607 | 0.303
Cc1ccc(C(=O)OCC(C)C)cc1N=NN(C)C | > 100 | > 100 | > 100 | > 100 | > 100 | > 100 | > 100 | > 85.2 | > 100 | > 100 | > 100 | > 100 | > 100 | > 100 | > 87.5 | > 100 | > 100 | – | > 100 | > 100
O=[N+]([O-])c1cc(Cl)cc2cc(Br)cnc12 | > 31.6 | – | > 31.6 | > 31.6 | > 31.6 | > 31.6 | > 23.7 | > 31.6 | > 31.6 | > 31.6 | > 31.6 | > 31.6 | > 31.6 | > 31.6 | > 31.6 | > 31.6 | > 31.6 | > 31.6 | > 31.6 | > 31.6
Clc1ccc(-c2ccc(-c3nn4c(CNc5ccccc5)nnc4s3)o2)c(Cl)c1 | > 100 | > 100 | > 100 | > 100 | > 100 | > 100 | > 100 | > 100 | > 100 | > 100 | > 100 | > 100 | > 100 | > 100 | > 100 | > 100 | > 100 | > 100 | > 100 | –
C#CCCCOc1ncccn1 | > 100 | > 100 | > 100 | > 100 | > 100 | – | > 100 | > 100 | > 100 | > 100 | > 100 | > 100 | > 100 | > 100 | > 100 | > 100 | > 100 | – | > 100 | > 100
